SMILES strings stand for the structures.

We go through 9 compounds from ChEMBL document CHEMBL3132769, “Fragment growing to retain or alter the selectivity of anchored kinase hinge-binding fragments” (Medchemcomm, 2014).

Assay [1] has as its target Aurora kinase B (Homo sapiens) (UniProt Q96GD4). As to the kind of experiment: Inhibition of human full length AurB expressed in baculovirus assessed as substrate phosphorylation using fluorescence-labelled peptides as substrate at 8 uM after 90 mins by microfluidic peptide phosphorylation assay.
Assay [2] addresses Fibroblast growth factor receptor 3 (Homo sapiens) (UniProt P22607). The assay can be described thus: Inhibition of human FGFR3 catalytic domain expressed in baculovirus assessed as substrate phosphorylation using fluorescence-labelled peptides as substrate at 420 uM after 90 mins by microfluidic peptide phosphorylation assay.
The species named for a further assay is Homo sapiens. Conditions: 0.1 uM.
Assay [3] deals with Insulin receptor (Homo sapiens) (UniProt P06213). As to the kind of experiment: Inhibition of human INSR catalytic domain expressed in baculovirus assessed as substrate phosphorylation using fluorescence-labelled peptides as substrate at 0.2 uM after 90 mins by microfluidic peptide phosphorylation assay.
Assay [4] addresses Protein kinase C eta type (Homo sapiens) (UniProt P24723). The assay can be described thus: Inhibition of human truncated PKC eta expressed in baculovirus assessed as substrate phosphorylation using fluorescence-labelled peptides as substrate at 0.2 uM after 90 mins by microfluidic peptide phosphorylation assay.
For assay [5], the target named is T1, Serine/threonine-protein kinase D2 (Homo sapiens) (UniProt Q9BZL6).
T1 sequence (whole entry): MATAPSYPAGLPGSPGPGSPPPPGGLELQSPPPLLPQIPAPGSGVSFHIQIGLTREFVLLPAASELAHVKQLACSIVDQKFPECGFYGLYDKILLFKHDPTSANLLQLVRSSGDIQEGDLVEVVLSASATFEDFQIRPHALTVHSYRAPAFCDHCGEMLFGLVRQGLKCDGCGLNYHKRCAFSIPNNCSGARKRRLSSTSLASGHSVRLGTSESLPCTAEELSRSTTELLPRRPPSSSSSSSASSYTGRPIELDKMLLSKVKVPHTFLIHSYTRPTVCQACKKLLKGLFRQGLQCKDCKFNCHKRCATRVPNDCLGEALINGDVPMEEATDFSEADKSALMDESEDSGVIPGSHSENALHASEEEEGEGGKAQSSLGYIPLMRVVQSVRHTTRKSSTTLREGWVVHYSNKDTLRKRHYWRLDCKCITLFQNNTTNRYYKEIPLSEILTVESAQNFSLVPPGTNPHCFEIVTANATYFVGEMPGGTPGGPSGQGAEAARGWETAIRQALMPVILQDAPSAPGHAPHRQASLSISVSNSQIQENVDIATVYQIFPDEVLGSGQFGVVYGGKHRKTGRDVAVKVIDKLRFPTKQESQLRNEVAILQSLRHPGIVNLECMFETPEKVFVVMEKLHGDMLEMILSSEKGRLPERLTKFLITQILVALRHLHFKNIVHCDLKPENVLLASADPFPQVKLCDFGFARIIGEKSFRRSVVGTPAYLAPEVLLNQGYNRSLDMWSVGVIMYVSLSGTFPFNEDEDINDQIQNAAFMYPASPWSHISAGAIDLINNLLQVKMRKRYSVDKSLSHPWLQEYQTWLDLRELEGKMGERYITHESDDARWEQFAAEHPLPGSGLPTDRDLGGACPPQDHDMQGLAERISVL
As to the kind of experiment: Inhibition of human full length PKD2 expressed in baculovirus assessed as substrate phosphorylation using fluorescence-labelled peptides as substrate at 9 uM after 90 mins by microfluidic peptide phosphorylation assay.

Assay [6] deals with Calcium/calmodulin-dependent protein kinase type II subunit delta (Homo sapiens) (UniProt Q13557). The assay can be described thus: Inhibition of human full length CAMK2D expressed in baculovirus assessed as substrate phosphorylation using fluorescence-labelled peptides as substrate at 70 uM after 90 mins by microfluidic peptide phosphorylation assay.
For assay [7], the target named is RAF proto-oncogene serine/threonine-protein kinase (Homo sapiens) (UniProt P04049). As to the kind of experiment: Inhibition of human truncated c-Raf expressed in baculovirus assessed as substrate phosphorylation using fluorescence-labelled peptides as substrate at 2 uM after 90 mins by microfluidic peptide phosphorylation assay.
In assay [8] the target is T2, Serine/threonine-protein kinase D3 (Homo sapiens) (UniProt O94806).
T2 sequence (whole entry): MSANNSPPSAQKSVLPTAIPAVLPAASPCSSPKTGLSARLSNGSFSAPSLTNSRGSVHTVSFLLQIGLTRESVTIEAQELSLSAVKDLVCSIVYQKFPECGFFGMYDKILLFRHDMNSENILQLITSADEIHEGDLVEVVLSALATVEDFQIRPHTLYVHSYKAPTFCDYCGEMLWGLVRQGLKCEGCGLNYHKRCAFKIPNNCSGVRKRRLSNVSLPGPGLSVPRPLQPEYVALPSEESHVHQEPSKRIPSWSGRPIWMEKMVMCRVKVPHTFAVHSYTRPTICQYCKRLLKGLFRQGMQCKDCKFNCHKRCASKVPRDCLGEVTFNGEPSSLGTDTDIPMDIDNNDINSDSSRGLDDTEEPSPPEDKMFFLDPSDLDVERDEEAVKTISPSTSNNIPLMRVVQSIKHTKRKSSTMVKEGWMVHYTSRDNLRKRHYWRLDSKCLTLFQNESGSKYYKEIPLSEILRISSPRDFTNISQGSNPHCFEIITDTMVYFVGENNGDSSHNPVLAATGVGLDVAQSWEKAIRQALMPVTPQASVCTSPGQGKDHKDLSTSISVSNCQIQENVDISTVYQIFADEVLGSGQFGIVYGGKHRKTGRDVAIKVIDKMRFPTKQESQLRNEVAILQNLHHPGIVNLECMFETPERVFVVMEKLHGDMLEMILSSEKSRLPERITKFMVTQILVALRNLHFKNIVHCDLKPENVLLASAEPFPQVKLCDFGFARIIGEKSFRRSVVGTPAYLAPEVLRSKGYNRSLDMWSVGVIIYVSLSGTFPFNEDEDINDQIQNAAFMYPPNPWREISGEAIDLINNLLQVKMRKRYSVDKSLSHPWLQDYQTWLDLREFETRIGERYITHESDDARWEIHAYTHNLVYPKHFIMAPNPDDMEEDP
The assay can be described thus: Inhibition of human full length PKD3 expressed in baculovirus assessed as substrate phosphorylation using fluorescence-labelled peptides as substrate at 95 uM after 90 mins by microfluidic peptide phosphorylation assay.

In assay [9] the target is Fibroblast growth factor receptor 3 (Homo sapiens) (UniProt P22607). The assay can be described thus: Inhibition of human FGFR3 catalytic domain expressed in baculovirus assessed as substrate phosphorylation using fluorescence-labelled peptides as substrate at 1000 uM after 90 mins by microfluidic peptide phosphorylation assay.
Sequence of Fibroblast growth factor receptor 3 (Homo sapiens) (P22607 23-806 limits assumed): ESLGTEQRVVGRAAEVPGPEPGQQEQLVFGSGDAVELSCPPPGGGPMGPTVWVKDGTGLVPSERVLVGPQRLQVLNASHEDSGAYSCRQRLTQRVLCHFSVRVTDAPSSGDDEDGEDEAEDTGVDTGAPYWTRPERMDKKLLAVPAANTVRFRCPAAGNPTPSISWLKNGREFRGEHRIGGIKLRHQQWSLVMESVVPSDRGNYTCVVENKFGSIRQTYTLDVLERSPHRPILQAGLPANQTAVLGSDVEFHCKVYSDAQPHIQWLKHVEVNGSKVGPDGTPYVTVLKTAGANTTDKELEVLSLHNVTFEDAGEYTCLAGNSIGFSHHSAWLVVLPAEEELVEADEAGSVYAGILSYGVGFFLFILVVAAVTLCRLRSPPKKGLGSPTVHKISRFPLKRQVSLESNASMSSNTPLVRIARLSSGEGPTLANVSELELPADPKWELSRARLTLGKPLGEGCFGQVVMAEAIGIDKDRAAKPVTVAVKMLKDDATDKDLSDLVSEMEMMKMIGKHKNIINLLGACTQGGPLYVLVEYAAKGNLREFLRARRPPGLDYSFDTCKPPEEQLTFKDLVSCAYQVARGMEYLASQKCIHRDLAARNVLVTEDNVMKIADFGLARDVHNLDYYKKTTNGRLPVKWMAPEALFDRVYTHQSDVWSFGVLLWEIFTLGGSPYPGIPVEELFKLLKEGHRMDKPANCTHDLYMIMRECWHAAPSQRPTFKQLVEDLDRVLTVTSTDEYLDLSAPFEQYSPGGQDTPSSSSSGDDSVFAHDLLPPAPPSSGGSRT

Sequence of Calcium/calmodulin-dependent protein kinase type II subunit delta (Homo sapiens) (Q13557 whole entry, the tested form may be a part): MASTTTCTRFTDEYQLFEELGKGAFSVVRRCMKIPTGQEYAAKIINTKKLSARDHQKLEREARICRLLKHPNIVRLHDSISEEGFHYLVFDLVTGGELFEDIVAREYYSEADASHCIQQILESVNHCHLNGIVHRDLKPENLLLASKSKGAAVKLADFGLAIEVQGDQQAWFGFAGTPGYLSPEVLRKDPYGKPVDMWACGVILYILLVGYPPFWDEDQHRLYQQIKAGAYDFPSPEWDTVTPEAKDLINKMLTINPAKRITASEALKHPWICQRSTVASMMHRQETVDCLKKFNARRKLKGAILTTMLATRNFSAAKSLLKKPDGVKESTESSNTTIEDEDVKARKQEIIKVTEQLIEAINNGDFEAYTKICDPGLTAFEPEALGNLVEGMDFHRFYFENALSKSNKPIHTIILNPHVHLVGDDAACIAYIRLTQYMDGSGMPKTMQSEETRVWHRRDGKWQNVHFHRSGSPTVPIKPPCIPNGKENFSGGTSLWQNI
Sequence of Protein kinase C eta type (Homo sapiens) (P24723 whole entry, the tested form may be a part): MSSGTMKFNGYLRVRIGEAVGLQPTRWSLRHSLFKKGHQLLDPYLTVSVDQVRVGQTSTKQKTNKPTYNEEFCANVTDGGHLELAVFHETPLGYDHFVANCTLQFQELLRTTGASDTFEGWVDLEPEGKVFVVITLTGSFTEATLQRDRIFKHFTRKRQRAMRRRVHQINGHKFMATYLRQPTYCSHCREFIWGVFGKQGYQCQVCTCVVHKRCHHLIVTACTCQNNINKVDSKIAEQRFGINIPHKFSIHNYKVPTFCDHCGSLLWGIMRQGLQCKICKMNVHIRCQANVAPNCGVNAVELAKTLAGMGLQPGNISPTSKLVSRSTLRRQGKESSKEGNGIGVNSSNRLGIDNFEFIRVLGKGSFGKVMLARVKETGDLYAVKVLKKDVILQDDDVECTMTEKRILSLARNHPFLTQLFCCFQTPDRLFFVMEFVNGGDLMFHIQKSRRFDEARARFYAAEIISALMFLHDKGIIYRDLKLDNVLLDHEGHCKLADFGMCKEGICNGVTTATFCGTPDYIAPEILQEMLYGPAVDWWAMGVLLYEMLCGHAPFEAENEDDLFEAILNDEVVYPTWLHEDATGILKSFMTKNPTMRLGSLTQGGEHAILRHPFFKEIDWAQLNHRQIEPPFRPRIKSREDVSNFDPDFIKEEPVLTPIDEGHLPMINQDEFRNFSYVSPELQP
Sequence of RAF proto-oncogene serine/threonine-protein kinase (Homo sapiens) (P04049 whole entry, the tested form may be a part): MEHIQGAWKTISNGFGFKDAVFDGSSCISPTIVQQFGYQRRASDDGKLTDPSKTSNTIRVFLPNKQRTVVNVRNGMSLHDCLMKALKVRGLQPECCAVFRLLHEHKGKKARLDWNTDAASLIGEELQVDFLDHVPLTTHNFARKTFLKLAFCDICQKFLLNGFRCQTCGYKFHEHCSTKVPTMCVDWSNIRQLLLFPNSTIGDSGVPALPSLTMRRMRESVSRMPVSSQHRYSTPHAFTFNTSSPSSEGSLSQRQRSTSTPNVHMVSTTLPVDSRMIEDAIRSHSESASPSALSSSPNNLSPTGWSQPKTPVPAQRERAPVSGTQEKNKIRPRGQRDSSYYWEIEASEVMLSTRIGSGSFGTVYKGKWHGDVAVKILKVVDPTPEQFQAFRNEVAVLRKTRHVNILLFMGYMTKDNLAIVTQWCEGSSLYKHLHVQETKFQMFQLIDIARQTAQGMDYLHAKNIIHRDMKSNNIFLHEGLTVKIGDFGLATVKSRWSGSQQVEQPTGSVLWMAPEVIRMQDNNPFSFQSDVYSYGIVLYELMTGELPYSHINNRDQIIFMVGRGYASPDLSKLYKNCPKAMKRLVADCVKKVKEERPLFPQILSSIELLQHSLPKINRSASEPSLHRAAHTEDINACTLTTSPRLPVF
Sequence of Aurora kinase B (Homo sapiens) (Q96GD4 whole entry, the tested form may be a part): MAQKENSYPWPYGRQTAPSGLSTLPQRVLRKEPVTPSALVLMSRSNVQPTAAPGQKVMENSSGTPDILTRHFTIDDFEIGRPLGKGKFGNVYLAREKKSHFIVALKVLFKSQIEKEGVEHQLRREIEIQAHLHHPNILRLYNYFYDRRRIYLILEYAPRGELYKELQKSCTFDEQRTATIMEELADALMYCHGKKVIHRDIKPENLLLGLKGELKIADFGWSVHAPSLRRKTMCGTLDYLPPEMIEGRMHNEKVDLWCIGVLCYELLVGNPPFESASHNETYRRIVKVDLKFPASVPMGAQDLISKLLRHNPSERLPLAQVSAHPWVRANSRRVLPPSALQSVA

For orientation: inhibition means the share of the control response that was lost under treatment. Take `NCC1CCN(c2ncnc3[nH]ccc23)CC1`: the inhibition in assay [1] is 76%. Take `c1nc(N2CCOCC2)c2nc[nH]c2n1`: in [2], the inhibition is 95%.

In turn, `C[C@H](CN(C)C)Oc1nc(Nc2cc3cccc(Cl)c3cn2)cnc1C#N` gave an inhibition in the assay filed under Homo sapiens of 0%. Take `Clc1ccc(C2(c3ccc(-c4ncnc5[nH]cnc45)cc3)CCNCC2)cc1`: the inhibition came to 11% in assay [3] and 36.5% in assay [4].

Consider `NCC1CN(c2ncnc3[nH]c4cnccc4c23)CCO1` (stereo not given), for which, in assay [5], the inhibition is 68%. Regarding `CNCc1ccc(-c2ncnc3[nH]cnc23)cc1`, in assay [6], the inhibition stood at 17.5%. For `NC1CCN(c2ncnc3[nH]ccc23)CC1`, in assay [7], the inhibition was found to be 7%. For the compound `NCCc1ccc(-c2ncnc3[nH]cnc23)cc1`, the inhibition in assay [8] worked out at 61.5%. As for `c1cnc2[nH]ccc2c1`, in assay [9], the inhibition is 63.5%.
